The record followed here is ChEMBL document CHEMBL5291721, “A preclinical secondary pharmacology resource illuminates target-adverse drug reaction associations of marketed drugs” (Nat Commun, 2023).

The term AC50 denotes the concentration giving half of the maximal activity seen. High values mean weaker potency, low ones greater potency.

Structures are written as SMILES.

Assay [1] has as its target T1, Progesterone receptor (Homo sapiens, UniProt P06401).
T1 sequence (P06401 whole entry): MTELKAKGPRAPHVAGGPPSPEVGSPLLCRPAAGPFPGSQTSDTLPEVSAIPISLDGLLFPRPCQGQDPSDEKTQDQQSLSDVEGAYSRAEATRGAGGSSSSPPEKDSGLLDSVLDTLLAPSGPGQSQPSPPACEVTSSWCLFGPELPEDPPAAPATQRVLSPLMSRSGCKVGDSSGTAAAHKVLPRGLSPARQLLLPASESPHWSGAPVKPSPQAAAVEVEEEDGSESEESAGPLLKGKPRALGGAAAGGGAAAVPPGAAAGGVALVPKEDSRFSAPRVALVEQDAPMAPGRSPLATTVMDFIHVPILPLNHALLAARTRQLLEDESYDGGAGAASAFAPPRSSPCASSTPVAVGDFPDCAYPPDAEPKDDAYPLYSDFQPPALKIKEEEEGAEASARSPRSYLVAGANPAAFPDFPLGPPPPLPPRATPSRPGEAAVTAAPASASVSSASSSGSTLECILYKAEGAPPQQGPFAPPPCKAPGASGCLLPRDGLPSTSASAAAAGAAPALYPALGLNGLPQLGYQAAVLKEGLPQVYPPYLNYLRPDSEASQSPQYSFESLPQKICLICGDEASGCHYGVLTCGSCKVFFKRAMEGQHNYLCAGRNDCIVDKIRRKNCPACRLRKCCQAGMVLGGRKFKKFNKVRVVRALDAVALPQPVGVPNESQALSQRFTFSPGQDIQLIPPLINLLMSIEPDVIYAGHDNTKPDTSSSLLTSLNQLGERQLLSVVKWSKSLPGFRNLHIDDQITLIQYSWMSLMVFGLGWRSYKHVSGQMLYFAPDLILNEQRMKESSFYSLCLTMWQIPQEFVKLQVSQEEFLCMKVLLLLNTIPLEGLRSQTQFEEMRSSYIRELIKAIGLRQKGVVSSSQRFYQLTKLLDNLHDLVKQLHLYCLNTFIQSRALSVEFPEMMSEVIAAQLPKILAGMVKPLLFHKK
Type of assay: functional.

Assay [2] addresses T2, 5-hydroxytryptamine receptor 2C (Homo sapiens, UniProt P28335).
T2 sequence (P28335 whole entry): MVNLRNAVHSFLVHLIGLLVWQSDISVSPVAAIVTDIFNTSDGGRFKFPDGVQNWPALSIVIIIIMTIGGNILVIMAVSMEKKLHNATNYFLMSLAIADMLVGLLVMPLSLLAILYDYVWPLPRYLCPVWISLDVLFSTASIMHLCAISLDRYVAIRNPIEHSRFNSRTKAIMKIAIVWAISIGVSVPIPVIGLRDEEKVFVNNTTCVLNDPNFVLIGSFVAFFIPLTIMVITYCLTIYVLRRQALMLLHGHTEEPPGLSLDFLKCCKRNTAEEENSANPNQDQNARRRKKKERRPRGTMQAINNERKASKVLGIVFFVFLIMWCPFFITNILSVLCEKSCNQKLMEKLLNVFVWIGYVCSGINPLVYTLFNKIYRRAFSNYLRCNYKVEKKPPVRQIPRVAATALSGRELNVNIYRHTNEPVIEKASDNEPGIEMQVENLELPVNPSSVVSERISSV

For assay [3], the target named is T3, 5-hydroxytryptamine receptor 3A (Homo sapiens, UniProt P46098).
T3 sequence (P46098 whole entry): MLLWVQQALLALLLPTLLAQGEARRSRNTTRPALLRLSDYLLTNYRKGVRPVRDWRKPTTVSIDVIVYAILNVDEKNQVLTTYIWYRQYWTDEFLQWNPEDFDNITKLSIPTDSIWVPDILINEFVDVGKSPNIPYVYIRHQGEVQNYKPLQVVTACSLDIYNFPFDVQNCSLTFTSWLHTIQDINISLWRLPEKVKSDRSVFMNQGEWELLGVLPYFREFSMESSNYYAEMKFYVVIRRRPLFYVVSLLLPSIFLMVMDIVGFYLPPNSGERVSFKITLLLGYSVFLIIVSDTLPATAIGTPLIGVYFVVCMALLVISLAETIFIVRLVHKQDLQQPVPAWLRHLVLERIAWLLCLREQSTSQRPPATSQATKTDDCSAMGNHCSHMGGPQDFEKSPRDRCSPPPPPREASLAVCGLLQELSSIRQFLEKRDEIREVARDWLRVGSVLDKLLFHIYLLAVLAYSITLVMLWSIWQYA
Type of assay: functional.

The target of assay [4] is T4, Thromboxane A2 receptor (Homo sapiens, UniProt P21731).
T4 sequence (P21731 whole entry): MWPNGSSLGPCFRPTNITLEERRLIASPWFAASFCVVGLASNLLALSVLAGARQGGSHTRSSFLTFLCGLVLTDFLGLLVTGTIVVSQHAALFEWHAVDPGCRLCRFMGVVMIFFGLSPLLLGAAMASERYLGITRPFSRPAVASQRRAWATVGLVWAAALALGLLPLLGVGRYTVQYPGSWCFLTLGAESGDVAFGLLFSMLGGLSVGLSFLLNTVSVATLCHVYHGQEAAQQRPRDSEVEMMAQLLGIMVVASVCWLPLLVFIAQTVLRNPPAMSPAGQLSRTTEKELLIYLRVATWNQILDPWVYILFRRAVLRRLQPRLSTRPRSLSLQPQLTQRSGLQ

The target of assay [5] is Delta-type opioid receptor (Homo sapiens, UniProt P41143).
Sequence of Delta-type opioid receptor (P41143 whole entry): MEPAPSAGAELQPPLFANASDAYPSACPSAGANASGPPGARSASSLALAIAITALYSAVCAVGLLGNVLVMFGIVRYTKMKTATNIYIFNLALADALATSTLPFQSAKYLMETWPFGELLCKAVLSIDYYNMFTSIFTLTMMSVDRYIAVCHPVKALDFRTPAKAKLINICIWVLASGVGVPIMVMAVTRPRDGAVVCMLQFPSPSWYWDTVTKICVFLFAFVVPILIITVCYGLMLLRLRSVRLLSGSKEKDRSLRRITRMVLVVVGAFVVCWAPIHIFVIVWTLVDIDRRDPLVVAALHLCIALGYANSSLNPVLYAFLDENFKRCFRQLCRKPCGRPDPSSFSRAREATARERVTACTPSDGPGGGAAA
Assay [6] concerns the target Kappa-type opioid receptor (Homo sapiens, UniProt P41145).
Assay [7] concerns the target Histamine H2 receptor (Homo sapiens, UniProt P25021). Type of assay: functional, cell-based.
Assay [8] addresses T5, Alpha-2B adrenergic receptor (Homo sapiens, UniProt P18089).
T5 sequence (P18089 whole entry): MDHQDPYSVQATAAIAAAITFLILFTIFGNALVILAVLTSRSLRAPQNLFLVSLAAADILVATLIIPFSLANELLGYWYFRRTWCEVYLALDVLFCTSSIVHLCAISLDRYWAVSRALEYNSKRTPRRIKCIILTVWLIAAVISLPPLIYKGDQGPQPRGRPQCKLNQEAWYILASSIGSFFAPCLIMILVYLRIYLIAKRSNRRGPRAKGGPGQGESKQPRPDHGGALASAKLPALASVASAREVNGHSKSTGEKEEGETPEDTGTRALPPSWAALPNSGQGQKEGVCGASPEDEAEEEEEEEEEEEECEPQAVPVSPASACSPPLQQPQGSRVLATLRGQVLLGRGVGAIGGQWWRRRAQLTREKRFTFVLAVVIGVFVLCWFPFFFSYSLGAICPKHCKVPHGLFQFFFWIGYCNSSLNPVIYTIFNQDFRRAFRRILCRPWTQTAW
Further: assay procedure not described here.

Sequence of Histamine H2 receptor (P25021 whole entry): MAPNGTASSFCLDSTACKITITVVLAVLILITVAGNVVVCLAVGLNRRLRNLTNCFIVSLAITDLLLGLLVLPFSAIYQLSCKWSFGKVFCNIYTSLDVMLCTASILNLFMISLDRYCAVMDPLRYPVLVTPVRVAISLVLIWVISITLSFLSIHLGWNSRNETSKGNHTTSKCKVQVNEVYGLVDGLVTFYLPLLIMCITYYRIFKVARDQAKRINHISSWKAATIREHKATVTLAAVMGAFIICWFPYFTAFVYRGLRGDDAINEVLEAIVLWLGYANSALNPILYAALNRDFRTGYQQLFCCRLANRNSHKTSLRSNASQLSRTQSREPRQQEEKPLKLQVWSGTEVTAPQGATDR
Sequence of Kappa-type opioid receptor (P41145 whole entry): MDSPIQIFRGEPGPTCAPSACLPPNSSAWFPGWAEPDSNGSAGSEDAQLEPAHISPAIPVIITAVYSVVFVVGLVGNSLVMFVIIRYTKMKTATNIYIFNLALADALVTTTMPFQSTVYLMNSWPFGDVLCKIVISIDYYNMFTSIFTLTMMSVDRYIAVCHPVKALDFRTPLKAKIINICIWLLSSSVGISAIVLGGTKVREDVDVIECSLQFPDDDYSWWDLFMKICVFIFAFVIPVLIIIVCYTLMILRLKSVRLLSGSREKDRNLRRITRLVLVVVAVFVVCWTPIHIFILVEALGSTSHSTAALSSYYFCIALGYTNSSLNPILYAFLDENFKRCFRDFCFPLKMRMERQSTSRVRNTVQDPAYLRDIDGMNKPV

Consider `CC(=O)SC[C@@H](C)C(=O)N1CCC[C@H]1C(=O)N[C@@H](Cc1ccccc1)C(=O)O`, for which the AC50 in assay [1] is > 30 µM; in assay [2], > 30 µM; in assay [3], > 30 µM; in assay [4], > 30 µM; in assay [5], > 30 µM; in assay [6], 21 µM. Moreover, the AC50 in assay [7] and in assay [8] was > 30 µM in each case.
Consider `C[N@+]1(CCF)[C@@H]2CC[C@H]1C[C@@H](OC(=O)C(O)(c1ccccc1)c1ccccc1)C2`, for which the AC50 in assay [1] is > 30 µM; in assay [2] it was > 30 µM; in assay [3] it was > 30 µM; in assay [4], > 30 µM; in assay [5], > 30 µM; in assay [6], 26 µM. The AC50 in assay [7] and in assay [8] was > 30 µM each time.
For the compound `CC(=O)O[C@H](CC(=O)[O-])C[N+](C)(C)C` [ACETYLCARNITINE], the AC50 in assay [1], in assay [2], in assay [3], in assay [4], in assay [5] and in assay [6] was > 30 µM throughout. The AC50 in assay [7] and in assay [8] was > 30 µM throughout.
Consider `O=C1CN=C(c2ccccn2)c2cc(Br)ccc2N1` [BROMAZEPAM], for which the AC50 is > 10 µM in assay [1]; > 30 µM in assay [2]; > 30 µM in assay [3]; > 10 µM in assay [4]; > 30 µM in assay [5]; > 10 µM in assay [6]. In addition, the AC50 in assay [7] and in assay [8] was > 10 µM in each case.
Regarding `C=C1/C(=C\C=C2/CCC[C@]3(C)[C@@H]([C@H](C)/C=C/[C@@H](O)C4CC4)CC[C@@H]23)C[C@@H](O)C[C@@H]1O` [CALCIPOTRIENE], the AC50 in assay [1], in assay [2], in assay [3], in assay [4], in assay [5] and in assay [6] was > 30 µM in each case. Further, the half-maximal activity concentration (AC50) in assay [7] and in assay [8] was > 30 µM in each case.
Take `CCN(CC)C(=O)Nc1ccc(OCC(O)CNC(C)(C)C)c(C(C)=O)c1` (stereo not drawn) [CELIPROLOL]: the AC50 in assay [1], in assay [2], in assay [3], in assay [4], in assay [5] and in assay [6] was > 30 µM in each case. In addition, the half-maximal activity concentration (AC50) in assay [7] and in assay [8] was > 30 µM each time.
`CC(=O)[C@@]1(O)CC[C@H]2[C@@H]3C=C(Cl)C4=CC(=O)[C@@H]5C[C@@H]5[C@]4(C)[C@H]3CC[C@@]21C` [CYPROTERONE]: the AC50 in assay [1] is 0.003 µM; in assay [2], > 30 µM; in assay [3], > 30 µM; in assay [4] it was > 10 µM; in assay [5], > 30 µM; in assay [6], 5.32 µM. Further, the AC50 in assay [7] and in assay [8] was > 10 µM in each case.
Turning to `CCCCCCCCCCCCCCCCCCCCCC(=O)Nc1ccn([C@@H]2O[C@H](CO)[C@@H](O)[C@@H]2O)c(=O)n1` [ENOCITABINE], the AC50 in assay [1], in assay [3], in assay [4], in assay [5], in assay [6] and in assay [7] was > 30 µM throughout. For the same compound, the AC50 in assay [8] is > 30 µM.
With `CCCCCC(=O)O[C@]1(C(C)=O)CC[C@H]2[C@@H]3CCC4=CC(=O)CC[C@]4(C)[C@H]3CC[C@@]21C` [HYDROXYPROGESTERONE CAPROATE], the AC50 in assay [1] was 0.003 µM; in assay [2] it was > 30 µM; in assay [3], > 30 µM; in assay [4], > 30 µM; in assay [5], > 30 µM; in assay [6], > 30 µM. Besides, the AC50 in assay [7] and in assay [8] was > 30 µM in each case.
Turning to `O=C(O)c1ccccc1Nc1cc(Cl)ccc1C(=O)O` [LOBENZARIT], the AC50 in assay [1], in assay [2], in assay [3], in assay [4], in assay [5] and in assay [6] was > 30 µM in each case. Besides, the AC50 in assay [7] and in assay [8] was > 30 µM each time.
`CCOC(=O)O[C@]1(C(=O)OCCl)CC[C@H]2[C@@H]3CCC4=CC(=O)C=C[C@]4(C)[C@H]3[C@@H](O)C[C@@]21C` [LOTEPREDNOL ETABONATE]: the AC50 in assay [1] was 0.024 µM; in assay [2], > 30 µM; in assay [3] it was > 30 µM; in assay [4] it was > 30 µM; in assay [5], > 30 µM; in assay [6], > 30 µM. Also, the AC50 in assay [7] and in assay [8] was > 30 µM in each case.
Regarding `COc1cc2c(cc1OC)C(CCc1ccc(Cl)cc1)N(C)CC2` (stereo not drawn) [METHOPHOLINE], the AC50 in assay [1] is > 30 µM; in assay [2] it was > 30 µM; in assay [3], > 30 µM; in assay [4] it was > 30 µM; in assay [5], > 30 µM; in assay [6] it was 1.2 µM. Besides, the AC50 in assay [7] and in assay [8] was > 10 µM each time.
`COc1ccc(-c2noc(CC(=O)O)c2-c2ccc(OC)cc2)cc1` [MOFEZOLAC]: the AC50 in assay [1], in assay [2], in assay [3], in assay [4], in assay [5] and in assay [6] was > 30 µM throughout. In addition, the AC50 in assay [7] and in assay [8] was > 30 µM in each case.
